The values below come from US20110009381A1, “SOLUBILIZED THIAZOLOPYRIDINES” (Sirtis Pharmaceuticals, Inc., priority 2007, published 2011).

This experiment has as its target T1, SIRT1 (Homo sapiens, UniProt Q96EB6).
T1 sequence (Q96EB6 1-747): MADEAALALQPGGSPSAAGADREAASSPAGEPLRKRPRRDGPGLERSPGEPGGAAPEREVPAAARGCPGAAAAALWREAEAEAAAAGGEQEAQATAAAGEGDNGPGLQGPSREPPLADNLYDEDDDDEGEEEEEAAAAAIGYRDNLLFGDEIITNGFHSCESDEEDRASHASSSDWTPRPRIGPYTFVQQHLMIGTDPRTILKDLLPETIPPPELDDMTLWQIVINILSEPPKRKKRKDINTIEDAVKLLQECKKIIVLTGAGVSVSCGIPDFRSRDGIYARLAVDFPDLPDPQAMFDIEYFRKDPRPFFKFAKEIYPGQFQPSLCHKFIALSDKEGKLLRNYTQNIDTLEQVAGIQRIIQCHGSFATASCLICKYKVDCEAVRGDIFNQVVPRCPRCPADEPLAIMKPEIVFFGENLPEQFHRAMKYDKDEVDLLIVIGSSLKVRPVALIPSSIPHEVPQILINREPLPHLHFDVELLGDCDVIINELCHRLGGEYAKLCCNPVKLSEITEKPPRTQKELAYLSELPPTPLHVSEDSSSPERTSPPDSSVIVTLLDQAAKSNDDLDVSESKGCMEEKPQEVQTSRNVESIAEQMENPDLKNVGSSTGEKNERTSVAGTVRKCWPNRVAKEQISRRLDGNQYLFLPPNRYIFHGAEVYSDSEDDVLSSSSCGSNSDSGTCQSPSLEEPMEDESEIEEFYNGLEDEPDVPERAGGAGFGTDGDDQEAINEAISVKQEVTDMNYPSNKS
In words: Mass spectrometry based assay to identify modulators of SIRT1 activity (deacetylation of p53-based acetylated peptide substrate). In kind it is biochemical. As to conditions: 10 nM SIRT1, 0.5 μM peptide substrate, 120 μM βNAD+, 25 minutes at 25° C.; for EC1.5: SIRT1 activation. In short, it runs like this:
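Activation measured on His-tagged SIRT1 (10 nM, E. coli-expressed) deacetylating a 0.5 μM p53-derived acetyl-peptide with 120 μM βNAD^+ for 25 min at 25 °C, pH 8 Tris-acetate. After formic acid stop, mass spectrometry quantified acetylated versus deacetylated peptide, referenced to DMSO and nicotinamide controls. Reported as EC1.5 and maximum fold activation.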

Structures are written as SMILES.

Turning to `CN(C)CCNc1cc(C(=O)Nc2ccccc2-c2nc3cccnc3s2)nc(-c2ccccc2)c1` [Compound 110], the “FOLD ACT. (percent maximum fold activation)” value is listed as “A (Fold activation≧300%)” and the EC1.5 entry was “A′ (EC1.5<250 nM)”.

As for `O=C(Nc1ccccc1-c1nc2cccnc2s1)c1cc(N2CCNCC2)cc(-c2ccccc2)n1` [Compound 119], the “FOLD ACT. (percent maximum fold activation)” value is “A (Fold activation≧300%)” and the EC1.5 entry is listed as “A′ (EC1.5<250 nM)”.

Turning to `COCCN(CCOC)c1cc(C(=O)Nc2ccccc2-c2nc3cccnc3s2)nc(-c2cccc(C)c2)n1` [Compound 143], the “FOLD ACT. (percent maximum fold activation)” value was “A (Fold activation≧300%)” and the EC1.5 entry is given as “A′ (EC1.5<250 nM)”.

For the molecule `COCCN1CCN(c2cc(C(=O)Nc3ccccc3-c3nc4cccnc4s3)nc(OC)n2)CC1` [Compound 5], the “FOLD ACT. (percent maximum fold activation)” value is “A (Fold activation≧300%)”; the EC1.5 entry was “A (EC1.5≧250 nM and ≦1 uM)”.

Consider `O=C(Nc1ccccc1-c1nc2cccnc2s1)c1cc(N2CCN3CCC[C@H]3C2)nc(-c2ccccc2)n1` [Compound 120], for which the “FOLD ACT. (percent maximum fold activation)” value was “A (Fold activation≧300%)”; the EC1.5 result was “A (EC1.5≧250 nM and ≦1 uM)”.

As to `O=C(Nc1ccccc1-c1nc2cccnc2s1)c1cc(NC(CO)C(=O)O)nc(-c2ccccc2)n1` (stereo not drawn) [Compound 92], the “FOLD ACT. (percent maximum fold activation)” value is on record as “A (Fold activation≧300%)”; the EC1.5 result was “B (EC1.5>1 and ≦10 uM)”.

In the case of `O=C(Nc1ccccc1-c1nc2cccnc2s1)c1cc(NCc2ccncc2)nc(-c2ccccc2)n1` [Compound 59], the “FOLD ACT. (percent maximum fold activation)” value was “A (Fold activation≧300%)”; the EC1.5 result was “A (EC1.5≧250 nM and ≦1 uM)”.

In the case of `O=C(Nc1ccccc1-c1nc2cccnc2s1)c1cc(N2C[C@H]3C[C@@H]2CN3)nc(-c2ccccc2)n1` [Compound 71], the “FOLD ACT. (percent maximum fold activation)” value is on record as “A (Fold activation≧300%)” and the EC1.5 entry is listed as “A′ (EC1.5<250 nM)”.

Regarding `O=C(Nc1ccccc1-c1nc2cccnc2s1)c1cc(N2CCS(=O)(=O)CC2)nc(-c2ccccc2)n1` [Compound 16], the “FOLD ACT. (percent maximum fold activation)” value was “B (Fold Activation≧150% and <300%)”; the EC1.5 entry was “A (EC1.5≧250 nM and ≦1 uM)”.

`O=C(Nc1ccccc1-c1nc2ccncc2s1)c1cc(NCc2ccncc2)nc(-c2ccccc2)n1` [Compound 32]: the “FOLD ACT. (percent maximum fold activation)” value was “A (Fold activation≧300%)”; the EC1.5 entry is “A (EC1.5≧250 nM and ≦1 uM)”.

`CCS(=O)(=O)CCNc1cc(C(=O)Nc2ccccc2-c2nc3cccnc3s2)nc(-c2ccccc2)n1` [Compound 74]: the “FOLD ACT. (percent maximum fold activation)” value is “A (Fold activation≧300%)” and the EC1.5 entry was “A′ (EC1.5<250 nM)”.

As to `CSCCNc1cc(C(=O)Nc2ccccc2-c2nc3cccnc3s2)nc(-c2ccccc2)n1` [Compound 45], the “FOLD ACT. (percent maximum fold activation)” value is “B (Fold Activation≧150% and <300%)”; the EC1.5 entry was “B (EC1.5>1 and ≦10 uM)”.

As to `COCCN1CCN(c2cc(C(=O)Nc3ccccc3-c3nc4cccnc4s3)nc(-c3ccccc3)c2)CC1` [Compound 124], the “FOLD ACT. (percent maximum fold activation)” value is listed as “A (Fold activation≧300%)” and the EC1.5 entry is recorded as “A′ (EC1.5<250 nM)”.

For the molecule `O=C(Nc1ccccc1-c1nc2cccnc2s1)c1cc(NC2CCNC2)nc(-c2ccccc2)n1` (stereo not drawn) [Compound 104], the “FOLD ACT. (percent maximum fold activation)” value is on record as “A (Fold activation≧300%)” and the EC1.5 result is “A′ (EC1.5<250 nM)”.

`O=C(Nc1ccccc1-c1nc2cccnc2s1)c1cc(C#CCO)nc(-c2ccccc2)n1` [Compound 79]: the “FOLD ACT. (percent maximum fold activation)” value is “C (Fold Activation<150%)” and the EC1.5 entry is “C (EC1.5>10 uM)”.

Consider `COCCN(CCOC)c1cc(C(=O)Nc2ccccc2-c2nc3cccnc3s2)nc(-c2ccccc2)n1` [Compound 68], for which the “FOLD ACT. (percent maximum fold activation)” value was “A (Fold activation≧300%)” and the EC1.5 result is reported as “A′ (EC1.5<250 nM)”.

`O=C(Nc1ccccc1-c1nc2cccnc2s1)c1cc(OC[C@H](O)CO)cc(-c2ccccc2)n1` [Compound 126]: the “FOLD ACT. (percent maximum fold activation)” value is “A (Fold activation≧300%)” and the EC1.5 result is listed as “A′ (EC1.5<250 nM)”.

As for `Cc1cccc(-c2nc(NC(CO)CO)cc(C(=O)Nc3ccccc3-c3nc4cccnc4s3)n2)c1` [Compound 134], the “FOLD ACT. (percent maximum fold activation)” value is “A (Fold activation≧300%)” and the EC1.5 entry was “A′ (EC1.5<250 nM)”.

Consider `CS(=O)(=O)CCNc1cc(C(=O)Nc2ccccc2-c2nc3cccnc3s2)nc(-c2ccccc2)n1` [Compound 46], for which the “FOLD ACT. (percent maximum fold activation)” value was “A (Fold activation≧300%)” and the EC1.5 entry is on record as “A′ (EC1.5<250 nM)”.

For `O=C(Nc1ccccc1-c1nc2cccnc2s1)c1cc(OC2CNC2)cc(-c2ccccc2)n1` [Compound 6], the “FOLD ACT. (percent maximum fold activation)” value is listed as “A (Fold activation≧300%)”; the EC1.5 result is “A (EC1.5≧250 nM and ≦1 uM)”.

Take `O=C(Nc1ccccc1-c1nc2ccncc2s1)c1cc(NCc2ccccn2)nc(-c2ccccc2)n1` [Compound 57]: the “FOLD ACT. (percent maximum fold activation)” value was “A (Fold activation≧300%)”; the EC1.5 result is “A (EC1.5≧250 nM and ≦1 uM)”.

Take `O=C(Nc1ccccc1-c1nc2cccnc2s1)c1cc(N[C@H]2CCCNC2)nc(-c2ccccc2)n1` [Compound 85]: the “FOLD ACT. (percent maximum fold activation)” value is recorded as “A (Fold activation≧300%)”; the EC1.5 result was “A (EC1.5≧250 nM and ≦1 uM)”.

Take `Cc1ccn(CCNc2cc(C(=O)Nc3ccccc3-c3nc4cccnc4s3)nc(-c3ccccc3)n2)n1` [Compound 78]: the “FOLD ACT. (percent maximum fold activation)” value is recorded as “A (Fold activation≧300%)” and the EC1.5 entry is “A′ (EC1.5<250 nM)”.

For `CC(=O)N1CCC(Nc2cc(C(=O)Nc3ccccc3-c3nc4cccnc4s3)nc(-c3ccccc3)n2)CC1` [Compound 116], the “FOLD ACT. (percent maximum fold activation)” value is on record as “A (Fold activation≧300%)” and the EC1.5 entry was “A′ (EC1.5<250 nM)”.

With `CN(C)CCNCCOc1cc(C(=O)Nc2ccccc2-c2nc3cccnc3s2)nc(-c2ccccc2)c1` [Compound 33], the “FOLD ACT. (percent maximum fold activation)” value is reported as “A (Fold activation≧300%)” and the EC1.5 entry is reported as “A′ (EC1.5<250 nM)”.

With `COCCN(C)c1cc(C(=O)Nc2ccccc2-c2nc3cccnc3s2)nc(-c2ccccc2)c1` [Compound 137], the “FOLD ACT. (percent maximum fold activation)” value is given as “A (Fold activation≧300%)” and the EC1.5 entry is recorded as “A′ (EC1.5<250 nM)”.

As for `O=C(Nc1ccccc1-c1nc2cccnc2s1)c1cc(NC[C@@H](O)CO)nc(-c2ccccc2)n1` [Compound 106], the “FOLD ACT. (percent maximum fold activation)” value is given as “A (Fold activation≧300%)” and the EC1.5 result was “A′ (EC1.5<250 nM)”.

Turning to `O=C(Nc1ccccc1-c1nc2cccnc2s1)c1cc(NCC2CCCNC2)nc(-c2ccccc2)n1` (stereo not drawn) [Compound 109], the “FOLD ACT. (percent maximum fold activation)” value is reported as “A (Fold activation≧300%)” and the EC1.5 result was “A′ (EC1.5<250 nM)”.

For `CN(C)CCOc1cc(C(=O)Nc2ccccc2-c2nc3cccnc3s2)nc(-c2ccccc2)n1` [Compound 94], the “FOLD ACT. (percent maximum fold activation)” value was “A (Fold activation≧300%)”; the EC1.5 entry is “A (EC1.5≧250 nM and ≦1 uM)”.

Consider `O=C(Nc1ccccc1-c1nc2cccnc2s1)c1cc(NC2CCN(c3ccccn3)CC2)nc(-c2ccccc2)n1` [Compound 115], for which the “FOLD ACT. (percent maximum fold activation)” value is listed as “C (Fold Activation<150%)” and the EC1.5 result was “C (EC1.5>10 uM)”.

In the case of `O=C(Nc1ccccc1-c1nc2cccnc2s1)c1cc(N2CCCCC2)nc(-c2ccccc2)n1` [Compound 21], the “FOLD ACT. (percent maximum fold activation)” value is recorded as “C (Fold Activation<150%)” and the EC1.5 entry is on record as “C (EC1.5>10 uM)”.

On to `CC(C)N1CCN(c2cc(C(=O)Nc3ccccc3-c3nc4ccncc4s3)nc(-c3ccccc3)n2)CC1` [Compound 24], for which the “FOLD ACT. (percent maximum fold activation)” value was “A (Fold activation≧300%)” and the EC1.5 entry is listed as “A′ (EC1.5<250 nM)”.

For the molecule `CCOc1cc(C(=O)Nc2ccccc2-c2nc3cccnc3s2)nc(-c2ccccc2)n1` [Compound 18], the “FOLD ACT. (percent maximum fold activation)” value was “C (Fold Activation<150%)” and the EC1.5 result is on record as “C (EC1.5>10 uM)”.

Regarding `O=C(Nc1ccccc1-c1nc2cccnc2s1)c1cc(N2CCCNCC2)nc(-c2ccccc2)n1` [Compound 37], the “FOLD ACT. (percent maximum fold activation)” value is “A (Fold activation≧300%)” and the EC1.5 result is listed as “A′ (EC1.5<250 nM)”.

`C[C@H](Nc1cc(C(=O)Nc2ccccc2-c2nc3cccnc3s2)nc(-c2ccccc2)n1)C(=O)O` [Compound 75]: the “FOLD ACT. (percent maximum fold activation)” value is “A (Fold activation≧300%)”; the EC1.5 result is “A (EC1.5≧250 nM and ≦1 uM)”.

In the case of `Cc1cccc(-c2nc(NCCN(C)C)cc(C(=O)Nc3ccccc3-c3nc4cccnc4s3)n2)c1` [Compound 112], the “FOLD ACT. (percent maximum fold activation)” value is given as “A (Fold activation≧300%)” and the EC1.5 result was “A′ (EC1.5<250 nM)”.
